“Also recorded” adds a separate entry of the source.
Tests used:
Assay type in all cases: in vivo, mouse
[1] = test system: BWF1 mice with anti-dsDNA and low proteinuria (PU^lo); test: Therapeutic treatment of BWF1 mice with anti-dsDNA and low proteinuria (PU^lo); conditions: LAQ 25 mg/kg, MMF 100 mg/kg
Protocol: (§1) Therapeutic Groups: a low proteinuria group)(PU^lo) consisted of mice with IgG anti-dsDNA detectable in serum and proteinuria ≦100 mg/dL, and a high proteinuria group (PU^hi) had proteinuria ≧300 mg/dL.
(§2) Proteinuria was evaluated weekly using Albustix (Siemens), serum creatinine using a commercial kit (Arbor Assays) and anti-dsDNA IgG antibodies by ELISA as described previously (10). See, e.g., FIGS. 1 and 2.
(§3) Kidney specimens of BWF1 mice (37 weeks of age in the prevention group or 7 and 11 weeks after institution of early or late therapies) were embedded in OCT compound and snap frozen. 4-5 μm an sections were air-dried, fixed with cold acetone and incubated with blocking buffer (anti-CD16/CD32 (1/50), 2% normal goat or rat serum, 2% BSA).
(§4) Histological analysis of glomerular pathology was done by an investigator blinded to treatment group and included acute inflammatory features (endocapillary hypercellularity, mesangial hypercellularity, cellular necrosis, cellular crescents, and interstitial inflammation), and chronic features (global glomerulosclerosis (GS), focal segmental glomerulosclerosis (FSGS), and interstitial fibrosis or tubular atrophy (IF/TA)). […] The weighted total score of the clinical features was based on this formula: [endocapillary hypercellularity+mesengial hypercellularity+(cellular necrosis*2)+(cellular crescents*2)+interstitial inflammation)/5]+(GS+FSGS+IFTA)/3, with maximum score 5.2. A minimum of 25 glomeruli, of at least 10 mice per group, were scored. Scores from each individual mouse were added and averaged to yield the glomerulonephritis score.

spleen cell subsets [2] = test: Spleen cell subsets of treated BWF1 mice by flow cytometry; conditions: for Frequency of cells ± SEM: CD4+ / Frequency of cells ± SEM: CD8+ / Frequency of cells ± SEM: CD11b^+Ly6C^+Ly6G+ / Frequency of cells ± SEM: CD11b^+Ly6C^+Ly6G− / Frequency of cells ± SEM: CD11b^+MDSC−(Mφ) / Frequency of cells ± SEM: CD11c^+CD11b+(DC) / Frequency of cells ± SEM: CD11c^+CD11b− (DC) / Frequency of cells ± SEM: CD4^+CD25^+Foxp3^+ / Frequency of cells ± SEM: CD19+: spleen, LAQ 25 mg/kg, MMF 100 mg/kg; for Frequency of cells ± SEM: CD4^+CD25^+Foxp3^+ / Frequency of cells ± SEM: CD19+: in % (unit assumed)
[3] = test system: leukocyte subsets present in kidney; test: Leukocyte subsets in kidney of treated BWF1 mice by flow cytometry; design: Frequency of cells ± SEM: CD11c^+CD11b− (DC) / Frequency of cells ± SEM: CD11b^+Ly6C^+Ly6G− / Frequency of cells ± SEM: CD11b^+Ly6C^+Ly6G+ / Frequency of cells ± SEM: CD4+ / Frequency of cells ± SEM: CD8+ / Frequency of cells ± SEM: CD11b^+MDSC−(Mφ) / Frequency of cells ± SEM: CD11c^+CD11b+(DC): unit not given here; conditions: for Frequency of cells ± SEM: CD4+ / Frequency of cells ± SEM: CD8+ / Frequency of cells ± SEM: CD11b^+Ly6C^+Ly6G+ / Frequency of cells ± SEM: CD11b^+Ly6C^+Ly6G− / Frequency of cells ± SEM: CD11b^+MDSC−(Mφ) / Frequency of cells ± SEM: CD11c^+CD11b+(DC) / Frequency of cells ± SEM: CD11c^+CD11b− (DC) / Frequency of cells ± SEM: CD19+: kidney, LAQ 25 mg/kg, MMF 100 mg/kg
Protocol: (§5) Single cell suspensions of splenocytes or kidney cells were prepared using cell strainers (Fisher), followed by red blood cell lysis. Kidney lymphocytes were separated from connective tissue by centrifugation (15 minutes at 400g) in 30% Percoll (GE Healthcare). CD4^+CD25^− cells from spleen and kidney were isolated using the CD4^+CD25^+ regulatory T cell isolation kit according to manufacturer's protocol (Miltenyi). CD11b+ cells were isolated using EasySep mouse CD11b positive selection kit (StemCell Technologies), surface stained for Ly6C and Ly6G prior to sorting myeloid-derived suppressor cells (MDSC) using FACSAria II. Populations were >95% pure by FACS analysis.
(§6) Single-cell suspensions from spleen or kidneys were stained for extracellular markers for 20 min at 4° C. in PBS/1% FBS. Intracellular staining for Foxp3 and cytokines was performed using the Foxp3 Fixation/Permeabilization kit according to the manufacturer's protocol (eBioscience). Cells were acquired on a FACS LSR II (BD) and data was analyzed using Flowjo (Tree Star).

spleen cell subsets [4] = test: Spleen cell subsets of treated BWF1 mice by flow cytometry
Text: Water-gavaged mice constituted the control untreated animals. The spleen cell subsets were identified by the expression of cell surface markers at age 32 weeks as follow: iTregs; nTregs; MΦ: CD11b^−CD103^−; MΦ^2: CD11b^+Ly6C^hiGr-1^−; MΦ^3: CD11b^+Ly6C^intGr-1^−; Gr-1: CD11b ly6C^intGr-1^+; DC: CD11c^+CD103^+; T2: CD19^+CD23^+CD21^+IgM^hi; MZ: CD19^+CD23^−CD21^+IgM^hi. Abbreviations: iTregs=induced T regulatory cells (Tregs). nTregs=natural Tregs. T2=transitional 2 B cells. MZ=marginal zone B cells. MΦ=macrophages. Gr1=granulocytes. Values are mean±SEM. The statistical significance between the groups was determined by analysis of variance (-A-NOVA). ^AP<0.05 versus untreated controls.
as §5, §6

[5] = test system: BWF1 mice with high proteinuria (PU^hi); test: Therapeutic treatment of BWF1 mice after clinical nephritis / high proteinuria (PU^hi); conditions: for Survival: treated after clinical nephritis / PU^hi, LAQ 25 mg/kg 3 times a week, MMF 100 mg/kg 5 times a week
Protocol: as §1, §2, §3, §4

[6] = spleen at age 32 weeks, oral gavage from age 11 weeks, LAQ 25 mg/kg 3 days per week, MMF 100 mg/kg 5 days/week
[7] = Preventive, 25 weeks after treatment
[8] = Therapeutic (PU^lo), 10 wks after initiation of therapy
[9] = spleen at age 32 weeks, oral gavage from age 11 weeks, LAQ 25 mg/kg 3 days per week, MMF 100 mg/kg 5 days/week, in % (unit assumed)

CCN(C(=O)c1c(O)c2c(Cl)cccc2n(C)c1=O)c1ccccc1 [LAQ, 5-chloro-N-ethyl-4-hydroxy-1-methyl-2-oxo-N-phenyl-1,2-dihydroquinoline-3-carboxamide]
Anti-dsDNA ([1]; PU^lo arm): not significantly decreased | Increase of proteinuria ([1]; PU^lo arm): prevented increased proteinuria | Rise in serum creatinine ([1]; PU^lo arm): prevented | Survival ([1]; PU^lo arm): significantly prolonged survival | Reduction of endo-capillary hypercellularity, interstitial inflammation, and focal segmental glomerulosclerosis ([1]; PU^lo mice): equally effective | Percent of CD4^+ Tregs (CD4^+CD25^+Foxp3^+) in splenocytes (spleen cell subsets [2]; FIG. 8): increased | Numbers of two putative regulatory cells, CD4^+CD25^+Foxp3^+ Treg and CD11b^+Ly6C^intGR-1^+ myeloid MM (spleen cell subsets [2]; LAQ compared to MMF): increased | Percentage of CD8^+ cells in spleen (spleen cell subsets [2]; compared to the control mice, listed as laquinimod): did not | Numbers of MM (splenic PBMC) (spleen cell subsets [2]; mouse, in vivo): significantly reduced | Frequency of cells ± SEM: CD11b^+CD103^− (MΦ^1) (spleen cell subsets [2]; [6]): 2.63 ± 0.30^A | Frequency of cells ± SEM: CD11b^+Ly6C^intGr-1^− (MΦ^3) (spleen cell subsets [2]; [6]): 18.48 ± 2.31^A | Frequency of cells ± SEM: CD19^+CD23^+CD21^+IgM^hi (T2) (spleen cell subsets [2]; [6]): 51.19 ± 4.32^A | Frequency of cells ± SEM: CD4+ (spleen cell subsets [2]; [7]): 20.2 ± 0.5 | Frequency of cells ± SEM: CD8+ (spleen cell subsets [2]; [7]): 12.3 ± 0.7 | Frequency of cells ± SEM: CD11b^+Ly6C^+Ly6G+ (spleen cell subsets [2]; [7]): 31.7 ± 3.6 | Frequency of cells ± SEM: CD11b^+Ly6C^+Ly6G− (spleen cell subsets [2]; [7]): 37.5 ± 2.1 | Frequency of cells ± SEM: CD11b^+MDSC−(Mφ) (spleen cell subsets [2]; [7]): 25.2 ± 1.7 | Frequency of cells ± SEM: CD11c^+CD11b+(DC) (spleen cell subsets [2]; [7]): 0.7 ± 0.1 | Frequency of cells ± SEM: CD11c^+CD11b− (DC) (spleen cell subsets [2]; [7]): 3.8 ± 0.2 | Frequency of cells ± SEM: CD4^+CD25^+Foxp3^+ (spleen cell subsets [2]; [7]): 9.4 ± 0.6 | Frequency of cells ± SEM: CD19+ (spleen cell subsets [2]; [7]): 68.0 ± 3.8 | Frequency of cells ± SEM: CD4+ (spleen cell subsets [2]; [8]): 21.3 ± 1.3 | Frequency of cells ± SEM: CD8+ (spleen cell subsets [2]; [8]): 24.9 ± 2.9 | Frequency of cells ± SEM: CD11b^+Ly6C^+Ly6G+ (spleen cell subsets [2]; [8]): 33.2 ± 5.6 | Frequency of cells ± SEM: CD11b^+Ly6C^+Ly6G− (spleen cell subsets [2]; [8]): 38.7 ± 1.9 | Frequency of cells ± SEM: CD11b^+MDSC−(Mφ) (spleen cell subsets [2]; [8]): 25.6 ± 3.3 | Frequency of cells ± SEM: CD11c^+CD11b+(DC) (spleen cell subsets [2]; [8]): 1.0 ± 0.2 | Frequency of cells ± SEM: CD11c^+CD11b− (DC) (spleen cell subsets [2]; [8]): 4.5 ± 0.4 | Frequency of cells ± SEM: CD4^+CD25^+Foxp3^+ (spleen cell subsets [2]; [8]): 2.2 ± 0.1 | Frequency of cells ± SEM: CD19+ (spleen cell subsets [2]; [8]): 51.1 ± 3.3 | Percentage of CD4^+ T cells in spleen (spleen cell subsets [2]; vs control mice, listed as laquinimod): did not | Frequency of cells ± SEM: CD4+ [3, 7]: 7.0 ± 0.5 | Frequency of cells ± SEM: CD8+ [3, 7]: 4.2 ± 0.2 | Frequency of cells ± SEM: CD11b^+Ly6C^+Ly6G+ [3, 7]: 7.9 ± 1.9 | Frequency of cells ± SEM: CD11b^+Ly6C^+Ly6G− [3, 7]: 44.4 ± 1.5 | Frequency of cells ± SEM: CD11b^+MDSC−(Mφ) [3, 7]: 31.0 ± 1.8 | Frequency of cells ± SEM: CD11c^+CD11b+(DC) [3, 7]: 0.7 ± 0.1 | Frequency of cells ± SEM: CD11c^+CD11b− (DC) [3, 7]: 3.8 ± 0.2 | Frequency of cells ± SEM: CD19+ [3, 7]: 4.0 ± 0.5 | Frequency of cells ± SEM: CD4+ [3, 8]: 2.8 ± 0.3 | Frequency of cells ± SEM: CD8+ [3, 8]: 2.7 ± 0.2 | Frequency of cells ± SEM: CD11b^+Ly6C^+Ly6G+ [3, 8]: 13.6 ± 1.2 | Frequency of cells ± SEM: CD11b^+Ly6C^+Ly6G− [3, 8]: 41.2 ± 0.4 | Frequency of cells ± SEM: CD11b^+MDSC−(Mφ) [3, 8]: 28.4 ± 0.9 | Frequency of cells ± SEM: CD11c^+CD11b+(DC) [3, 8]: 0.7 ± 0.1 | Frequency of cells ± SEM: CD11c^+CD11b− (DC) [3, 8]: 1.2 ± 0.1 | Frequency of cells ± SEM: CD19+ [3, 8]: 2.7 ± 0.2 | Number of MM in the kidneys ([3]; mouse, in vivo): suppresses numbers of monocytes/macrophages | Phenotype of MM isolated from kidneys ([3]; mouse, in vivo): promoting change from M1 to M2 phenotypes | Number of MM in the kidneys ([3]; mouse, in vivo, listed as laquinimod): significantly reduced | Percentage of CD8^+ cells in spleen (spleen cell subsets [4]; compared to the control mice): did not; also recorded: not significantly altered | Frequency of cells ± SEM: CD11b^+Ly6C^hiGr-1^− (MΦ^2) (spleen cell subsets [4]; [6]): 12.15 ± 2.11 | Frequency of cells ± SEM: CD11b^+Ly6C^intGr-1^+ (Gr-1) (spleen cell subsets [4]; [6]): 41.50 ± 3.08^A | Frequency of cells ± SEM: CD 19^+ (spleen cell subsets [4]; [9]): 68.02 ± 3.83 | Frequency of cells ± SEM: CD19^+CD23^−CD21^+IgM^hi (MZ) (spleen cell subsets [4]; [9]): 11.85 ± 2.15 | Percentage of CD4^+ T cells in spleen (spleen cell subsets [4]; vs control mice): did not | Rise in serum creatinine ([5]; PU^hi arm, LAQ 25 mg/kg, MMF 100 mg/kg): suppresses | Animals with proteinuria reduced to levels below 300 mg/dL ([5]; PU^hi arm, after 8 weeks of treatment, LAQ 25 mg/kg, MMF 100 mg/kg): 50% | FSGS and IF/TA histology scores ([5]; PU^hi arm, compared to controls): significantly lower | Endo-capillary hypercellularity in the kidney ([5]; PU^hi arm, versus both control and MMF-treated mice): significantly lower | Established proteinuria ([5]; mice that already developed proteinuria, vs water): significant reduction of proteinuria; also recorded: suppresses proteinuria | Survival ([5]; vs water): better; also recorded: significantly increased survival; also recorded: survived | Survival ([5]; vs water, listed as laquinimod): better | Mice with proteinuria present after 3 wks. of treatment ([5]; treated after clinical nephritis appeared (≧3+ proteinuria), water 100%, p<0.001): 25% | Histologic evidence of inflammation in the kidneys ([5]; treatment starting after proteinuria developed, vs water): significantly less histologic evidence of inflammation

Reference: patent publication US20130345257A1, “COMPOSITION FOR LUPUS NEPHRITIS AND METHODS OF MAKING AND USING THE SAME” (The Regents of the University of California, priority 2012, published 2013)
